Legend:
giant foxtail = test: Test A pre-/postemergence herbicide test; type: in vivo, Setaria faberii
Outline: (§1)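 Planted in loam–sand blend; treated the same day preemergence by directed soil spray, while separately grown plants at one- to two-leaf stage got postemergence spray. Compared visually with untreated controls after approximately 10 days; 100 means complete control.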

rice = test: Test B flooded paddy test; type: in vivo, Oryza sativa; conditions: 500 g ai/ha, Flood; scale of 0 to 100 where 0 is no effect and 100 is complete control
Outline: (§2)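 Treatment was made at the 2-leaf stage by dosing the standing floodwater, kept 3 cm above soil level for the whole test. Greenhouse exposure lasted 13 to 15 days. Response is a visual percent rating relative to controls, where a dash indicates no test result.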

ducksalad = test: Test B flooded paddy test; type: in vivo, Heteranthera limosa; conditions: 500 g ai/ha, Flood; scale of 0 to 100 where 0 is no effect and 100 is complete control
Outline: as §2

pigweed = test: Test A pre-/postemergence herbicide test; type: in vivo, Amaranthus retroflexus
Outline: as §1

ryegrass, Italian = test: Test A pre-/postemergence herbicide test; type: in vivo, Lolium multiflorum
Outline: as §1

barnyardgrass [1] = test: Test A pre-/postemergence herbicide test; type: in vivo, Echinochloa crus-galli
Outline: as §1

blackgrass = test: Test A postemergence herbicide test; type: in vivo, Alopecurus myosuroides
Outline: (§3)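 Young potted plants in a loam–sand mix, one- to two-leaf stage and 2–10 cm tall, receive the test chemical postemergence and stay in a greenhouse for approximately 10 days. Injury is then judged by eye against untreated plants, scored 0 (none) to 100 (complete control).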

ragweed = test: Test A pre-/postemergence herbicide test; type: in vivo, Ambrosia elatior
Outline: as §1

wheat = test: Test A pre-/postemergence herbicide test; type: in vivo, Triticum aestivum; conditions: Postemergence
Outline: as §1

kochia = test: Test A pre-/postemergence herbicide test; type: in vivo, Kochia scoparia
Outline: as §1

galium = test: Test A postemergence herbicide test; type: in vivo, Galium aparine
Outline: as §3

corn = test: Test A pre-/postemergence herbicide test; type: in vivo, Zea mays; conditions: Postemergence
Outline: as §1

sedge, umbrella = test: Test B flooded paddy test; type: in vivo, Cyperus difformis; conditions: 500 g ai/ha, Flood; scale of 0 to 100 where 0 is no effect and 100 is complete control
Outline: as §2

barnyardgrass [2] = test: Test B flooded paddy test; type: in vivo, Echinochloa crus-galli; conditions: 500 g ai/ha, Flood; scale of 0 to 100 where 0 is no effect and 100 is complete control
Outline: as §2

[3] = 125 g ai/ha, visual rating, 0 to 100 scale, 0 no effect, 100 complete control, approximately 10 days, preemergence
[4] = Postemergence, 125 g ai/ha, 0 to 100 scale, 0 is no effect, 100 is complete control
[5] = preemergence, 500 g ai/ha, 0 to 100 scale, 0 is no effect and 100 is complete control
[6] = 125 g ai/ha, 0 to 100 scale, 0 is no effect, 100 is complete control
[7] = Postemergence, 125 g ai/ha, visual rating on 0 to 100 scale (0 no effect, 100 complete control), approx. 10 days
[8] = Postemergence, 500 g ai/ha, 0 to 100 scale (0 no effect, 100 complete control)
[9] = Preemergence, 125 g ai/ha, 0 to 100 scale where 0 is no effect and 100 is complete control
[10] = Preemergence, 500 g ai/ha, visual rating on 0 to 100 scale (0 no effect, 100 complete control)
[11] = 125 g ai/ha, visual rating on 0 to 100 scale (0 no effect, 100 complete control), approx. 10 days
[12] = 500 g ai/ha, 0 to 100 scale (0 no effect, 100 complete control)

SMILES: O=C1NCC(c2ccc3c(c2)OC(F)(F)O3)C1C(=O)Nc1ccccc1F (racemic) [Compound 161]
- Plant response rating, Foxtail, Giant (giant foxtail; [3]): 90
- Plant response rating, Foxtail, Giant (giant foxtail; [4]): 90
- Foxtail, Giant plant response rating (0 to 100 scale, 0 is no effect, 100 is complete control) (giant foxtail; Postemergence, 500 g ai/ha): 90
- Plant response rating, Foxtail, Giant (giant foxtail; preemergence, 500 g ai/ha, 0 to 100 scale): 90
- Plant response rating, Rice (rice): 10
- Plant response rating, Ducksalad (ducksalad): 100
- Plant response rating, Pigweed (pigweed; [3]): 20
- Plant response rating, Pigweed (pigweed; [4]): 20
- Pigweed plant response rating (0 to 100 scale, 0 is no effect, 100 is complete control) (pigweed; Postemergence, 500 g ai/ha): 60
- Plant response rating, Pigweed (pigweed; [5]): 70
- Plant response rating, Ryegrass, Italian (ryegrass, Italian; [3]): 0
- Plant response rating, Ryegrass, Italian (ryegrass, Italian; [4]): 20
- Ryegrass, Italian plant response rating (0 to 100 scale, 0 is no effect, 100 is complete control) (ryegrass, Italian; Postemergence, 500 g ai/ha): 50
- Plant response rating, Ryegrass, Italian (ryegrass, Italian; [5]): 50
- Plant response rating, Barnyardgrass (barnyardgrass [1]; [3]): 90
- Plant response rating, Barnyardgrass (barnyardgrass [1]; [4]): 90
- Barnyardgrass plant response rating (0 to 100 scale, 0 is no effect, 100 is complete control) (barnyardgrass [1]; Postemergence, 500 g ai/ha): 90
- Plant response rating, Barnyardgrass (barnyardgrass [1]; preemergence, 500 g ai/ha, 0 to 100 scale (0 no effect, 100 complete control)): 90
- Plant response rating, Blackgrass (blackgrass; [6]): 50
- Blackgrass plant response rating (0 to 100 scale, 0 is no effect, 100 is complete control) (blackgrass; 500 g ai/ha): 50
- Plant response rating, Ragweed (ragweed; [3]): 20
- Plant response rating, Ragweed (ragweed; [4]): 0
- Ragweed plant response rating (0 to 100 scale, 0 is no effect, 100 is complete control) (ragweed; Postemergence, 500 g ai/ha): 30
- Plant response rating, Ragweed (ragweed; [5]): 70
- Plant response rating, Wheat (wheat; [6]): 20
- Wheat plant response rating (0 to 100 scale, 0 is no effect, 100 is complete control) (wheat; 500 g ai/ha): 40
- Plant response rating, Kochia (kochia; [3]): 20
- Plant response rating, Kochia (kochia; [4]): 20
- Kochia plant response rating (0 to 100 scale, 0 is no effect, 100 is complete control) (kochia; Postemergence, 500 g ai/ha): 60
- Plant response rating, Kochia (kochia; [5]): 60
- Plant response rating, Galium (galium; [6]): 50
- Galium plant response rating (0 to 100 scale, 0 is no effect, 100 is complete control) (galium; 500 g ai/ha): 60
- Plant response rating, Corn (corn; [6]): 10
- Corn plant response rating (0 to 100 scale, 0 is no effect, 100 is complete control) (corn; 500 g ai/ha): 60
- Plant response rating, Sedge, Umbrella (sedge, umbrella): 0
- Plant response rating, Barnyardgrass (barnyardgrass [2]): 65

SMILES: O=C1NCC(c2cccc(-n3cccn3)c2)C1C(=O)Nc1cccc(F)c1F (stereo not drawn) [Compound 337]
- Plant response rating, Foxtail, Giant (giant foxtail; [7]): 0
- Plant response rating, Foxtail, Giant (giant foxtail; [8]): 40
- Plant response rating, Foxtail, Giant (giant foxtail; [9]): 0
- Foxtail, Giant plant response rating (giant foxtail; [10]): 30
- Plant response rating, Rice (rice): 0
- Plant response rating, Ducksalad (ducksalad): 0
- Plant response rating, Pigweed (pigweed; [7]): 0
- Plant response rating, Pigweed (pigweed; [9]): 0
- Pigweed plant response rating (pigweed; [10]): 0
- Plant response rating, Ryegrass, Italian (ryegrass, Italian; [7]): 0
- Plant response rating, Ryegrass, Italian (ryegrass, Italian; [9]): 0
- Ryegrass, Italian plant response rating (ryegrass, Italian; [10]): 0
- Plant response rating, Barnyardgrass (barnyardgrass [1]; [7]): 0
- Plant response rating, Barnyardgrass (barnyardgrass [1]; [8]): 50
- Plant response rating, Barnyardgrass (barnyardgrass [1]; [9]): 0
- Barnyardgrass plant response rating (barnyardgrass [1]; [10]): 20
- Plant response rating, Blackgrass (blackgrass; [11]): 0
- Plant response rating, Blackgrass (blackgrass; [12]): 0
- Plant response rating, Ragweed (ragweed; [7]): 0
- Plant response rating, Ragweed (ragweed; [9]): 0
- Ragweed plant response rating (ragweed; [10]): 0
- Plant response rating, Wheat (wheat; [11]): 0
- Plant response rating, Kochia (kochia; [7]): 0
- Plant response rating, Kochia (kochia; [9]): 0
- Kochia plant response rating (kochia; [10]): 0
- Plant response rating, Galium (galium; [11]): 0
- Plant response rating, Corn (corn; [11]): 0
- Plant response rating, Corn (corn; [12]): 0
- Plant response rating, Sedge, Umbrella (sedge, umbrella): 0
- Plant response rating, Barnyardgrass (barnyardgrass [2]): 0

SMILES: O=C1NCC(c2cccc(Oc3ccccc3)c2)C1C(=O)Nc1ccccc1Cl (stereo not drawn) [Compound 334]
- Plant response rating, Foxtail, Giant (giant foxtail; [7]): 0
- Plant response rating, Foxtail, Giant (giant foxtail; [8]): 10
- Plant response rating, Foxtail, Giant (giant foxtail; [9]): 0
- Foxtail, Giant plant response rating (giant foxtail; [10]): 50
- Plant response rating, Rice (rice): 0
- Plant response rating, Ducksalad (ducksalad): 40
- Plant response rating, Pigweed (pigweed; [7]): 0
- Plant response rating, Pigweed (pigweed; [8]): 0
- Plant response rating, Pigweed (pigweed; [9]): 0
- Pigweed plant response rating (pigweed; [10]): 0
- Plant response rating, Ryegrass, Italian (ryegrass, Italian; [7]): 0
- Plant response rating, Ryegrass, Italian (ryegrass, Italian; [8]): 0
- Plant response rating, Ryegrass, Italian (ryegrass, Italian; [9]): 0
- Ryegrass, Italian plant response rating (ryegrass, Italian; [10]): 0
- Plant response rating, Barnyardgrass (barnyardgrass [1]; [7]): 0
- Plant response rating, Barnyardgrass (barnyardgrass [1]; [8]): 0
- Plant response rating, Barnyardgrass (barnyardgrass [1]; [9]): 0
- Barnyardgrass plant response rating (barnyardgrass [1]; [10]): 0
- Plant response rating, Blackgrass (blackgrass; [11]): 0
- Plant response rating, Blackgrass (blackgrass; [12]): 0
- Plant response rating, Ragweed (ragweed; [7]): 0
- Plant response rating, Ragweed (ragweed; [8]): 0
- Plant response rating, Ragweed (ragweed; [9]): 0
- Ragweed plant response rating (ragweed; [10]): 0
- Plant response rating, Wheat (wheat; [11]): 0
- Plant response rating, Wheat (wheat; [12]): 0
- Plant response rating, Kochia (kochia; [7]): 0
- Plant response rating, Kochia (kochia; [8]): 0
- Plant response rating, Kochia (kochia; [9]): 0
- Kochia plant response rating (kochia; [10]): 0
- Plant response rating, Galium (galium; [11]): 0
- Plant response rating, Galium (galium; [12]): 0
- Plant response rating, Corn (corn; [11]): 0
- Plant response rating, Corn (corn; [12]): 0
- Plant response rating, Sedge, Umbrella (sedge, umbrella): 0
- Plant response rating, Barnyardgrass (barnyardgrass [2]): 30
